The text below walks through data of patent US20230079819A1, “COMPOUNDS AND USES THEREOF” (Foghorn Therapeutics Inc., priority 2019, published 2023).

One assay addresses T1, BRM (Homo sapiens, UniProt P51531).
T1 construct: made in house; host or cells: High Five insect cells
In words: ATPase catalytic activity of BRM, ADP-Glo in vitro biochemical assay. The following applies: ATPase catalytic activity, 30 nM BRM, 400 μM ATP, read-out: BRM IP50.

The target in a further assay is T2, BRG-1 (Homo sapiens, UniProt P51532).
T2 construct: made in house; host or cells: High Five insect cells
In words: ATPase catalytic activity of BRG-1, ADP-Glo in vitro biochemical assay. Particulars: ATPase catalytic activity, 30 nM BRG-1, 400 μM ATP, read-out: BRG1 IP50. Background: In ADP-Glo the light output rises with the ADP produced.

T2 sequence (P51532 whole entry): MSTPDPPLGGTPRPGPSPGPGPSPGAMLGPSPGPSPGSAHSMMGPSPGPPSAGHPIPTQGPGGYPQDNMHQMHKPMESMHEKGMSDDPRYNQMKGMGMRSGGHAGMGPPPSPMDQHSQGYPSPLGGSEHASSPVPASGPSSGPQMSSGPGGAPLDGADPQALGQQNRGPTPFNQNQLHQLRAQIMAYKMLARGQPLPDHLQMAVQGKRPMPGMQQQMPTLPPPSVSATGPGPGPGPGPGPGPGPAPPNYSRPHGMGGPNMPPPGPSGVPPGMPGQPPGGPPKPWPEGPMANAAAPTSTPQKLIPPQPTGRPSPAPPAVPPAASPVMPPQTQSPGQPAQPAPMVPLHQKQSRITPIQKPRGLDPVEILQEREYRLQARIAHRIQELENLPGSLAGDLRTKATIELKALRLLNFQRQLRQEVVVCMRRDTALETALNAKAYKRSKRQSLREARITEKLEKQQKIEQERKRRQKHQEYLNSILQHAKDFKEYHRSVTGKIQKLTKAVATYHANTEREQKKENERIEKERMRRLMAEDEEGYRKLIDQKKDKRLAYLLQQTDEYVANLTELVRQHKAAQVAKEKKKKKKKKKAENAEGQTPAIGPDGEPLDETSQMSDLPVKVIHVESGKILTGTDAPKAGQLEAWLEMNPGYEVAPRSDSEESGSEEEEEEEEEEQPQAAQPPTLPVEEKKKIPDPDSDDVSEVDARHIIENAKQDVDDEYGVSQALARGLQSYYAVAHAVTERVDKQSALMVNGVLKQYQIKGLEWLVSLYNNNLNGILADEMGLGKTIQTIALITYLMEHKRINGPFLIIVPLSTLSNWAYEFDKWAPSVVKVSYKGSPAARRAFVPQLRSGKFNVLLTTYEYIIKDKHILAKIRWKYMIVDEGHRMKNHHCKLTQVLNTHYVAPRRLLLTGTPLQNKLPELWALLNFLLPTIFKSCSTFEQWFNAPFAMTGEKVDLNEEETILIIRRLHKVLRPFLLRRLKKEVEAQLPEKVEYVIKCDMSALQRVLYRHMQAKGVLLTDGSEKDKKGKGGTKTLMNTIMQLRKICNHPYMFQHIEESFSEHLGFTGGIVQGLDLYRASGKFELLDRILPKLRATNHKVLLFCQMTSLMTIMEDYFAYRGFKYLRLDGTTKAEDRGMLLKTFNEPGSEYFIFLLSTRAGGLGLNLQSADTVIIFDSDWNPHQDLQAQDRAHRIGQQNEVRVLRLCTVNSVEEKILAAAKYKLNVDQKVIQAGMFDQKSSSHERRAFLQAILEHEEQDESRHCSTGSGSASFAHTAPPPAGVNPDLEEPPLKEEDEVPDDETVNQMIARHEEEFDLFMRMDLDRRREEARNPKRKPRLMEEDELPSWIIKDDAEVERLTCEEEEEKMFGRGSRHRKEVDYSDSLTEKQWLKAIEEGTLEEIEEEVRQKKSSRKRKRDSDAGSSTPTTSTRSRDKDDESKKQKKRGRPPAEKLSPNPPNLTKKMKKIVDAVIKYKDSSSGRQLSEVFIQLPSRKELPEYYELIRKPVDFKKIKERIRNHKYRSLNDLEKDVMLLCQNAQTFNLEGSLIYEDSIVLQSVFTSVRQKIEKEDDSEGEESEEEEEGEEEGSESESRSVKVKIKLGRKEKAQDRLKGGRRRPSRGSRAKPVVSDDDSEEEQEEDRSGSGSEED
T1 sequence (P51531 whole entry): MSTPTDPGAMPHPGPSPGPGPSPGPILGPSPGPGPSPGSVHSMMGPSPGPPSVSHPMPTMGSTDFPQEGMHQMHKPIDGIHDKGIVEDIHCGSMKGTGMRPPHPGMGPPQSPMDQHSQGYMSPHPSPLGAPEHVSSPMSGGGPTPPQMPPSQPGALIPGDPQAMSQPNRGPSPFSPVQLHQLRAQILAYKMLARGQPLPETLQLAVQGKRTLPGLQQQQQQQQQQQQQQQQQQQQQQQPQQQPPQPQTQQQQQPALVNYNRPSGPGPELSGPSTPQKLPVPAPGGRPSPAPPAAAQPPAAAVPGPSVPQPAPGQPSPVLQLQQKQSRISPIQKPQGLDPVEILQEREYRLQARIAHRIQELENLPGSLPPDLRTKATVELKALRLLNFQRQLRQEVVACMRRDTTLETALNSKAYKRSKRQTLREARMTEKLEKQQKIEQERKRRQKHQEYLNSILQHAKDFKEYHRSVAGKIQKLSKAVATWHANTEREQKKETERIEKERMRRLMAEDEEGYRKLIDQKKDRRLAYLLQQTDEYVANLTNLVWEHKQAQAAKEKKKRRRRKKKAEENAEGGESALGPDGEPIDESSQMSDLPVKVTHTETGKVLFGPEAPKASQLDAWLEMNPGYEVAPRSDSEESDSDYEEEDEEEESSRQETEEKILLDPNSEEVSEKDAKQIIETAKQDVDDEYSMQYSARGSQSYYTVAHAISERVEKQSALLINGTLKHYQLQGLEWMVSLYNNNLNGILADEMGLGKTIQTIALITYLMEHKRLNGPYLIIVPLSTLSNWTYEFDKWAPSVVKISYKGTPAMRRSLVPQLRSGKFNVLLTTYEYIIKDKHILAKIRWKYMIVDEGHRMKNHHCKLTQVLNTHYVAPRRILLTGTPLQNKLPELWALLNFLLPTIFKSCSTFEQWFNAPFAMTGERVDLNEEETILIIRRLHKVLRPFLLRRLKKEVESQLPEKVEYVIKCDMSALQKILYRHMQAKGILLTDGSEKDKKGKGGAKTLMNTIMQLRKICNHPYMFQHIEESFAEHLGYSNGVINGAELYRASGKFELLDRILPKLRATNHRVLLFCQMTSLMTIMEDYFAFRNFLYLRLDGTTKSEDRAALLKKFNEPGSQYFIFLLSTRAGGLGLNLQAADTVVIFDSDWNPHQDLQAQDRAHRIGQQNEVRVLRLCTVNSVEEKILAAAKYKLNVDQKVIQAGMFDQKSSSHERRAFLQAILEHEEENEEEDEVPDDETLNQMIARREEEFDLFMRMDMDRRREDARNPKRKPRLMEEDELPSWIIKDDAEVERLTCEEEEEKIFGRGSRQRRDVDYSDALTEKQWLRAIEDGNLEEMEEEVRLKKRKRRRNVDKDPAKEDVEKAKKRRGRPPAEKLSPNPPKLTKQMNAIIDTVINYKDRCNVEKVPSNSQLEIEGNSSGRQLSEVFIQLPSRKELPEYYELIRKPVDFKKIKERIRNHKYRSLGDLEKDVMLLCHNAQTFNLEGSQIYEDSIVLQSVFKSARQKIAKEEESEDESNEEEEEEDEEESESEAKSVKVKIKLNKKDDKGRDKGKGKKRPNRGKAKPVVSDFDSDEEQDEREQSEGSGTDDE

`CC(C)(C#N)n1ccc(C(=O)NCC(=O)Nc2nc(-c3cc(F)c4c(c3)OCC4)cs2)c1` [Compound 571]: the IC50 on BRM is under 10 nM; on BRG-1 it was over 10 nM.
Consider `COC[C@H](NC(=O)c1ccn(C2(C)COC2)c1)C(=O)Nc1nc(-c2cccc(-c3ccn(C)n3)c2)cs1` [Compound 572], for which the IC50 on BRM and at BRG-1 was over 10 nM each time.
In the case of `COC[C@H](NC(=O)c1ccn(S(C)(=O)=O)c1)C(=O)Nc1nc(-c2cccc(N3CCC3)c2F)cs1` [Compound 573], the IC50 on BRM and on BRG-1 was over 10 nM each time.
`CS(=O)(=O)n1ccc(C(=O)NCC(=O)Nc2nc(-c3ccc4c(c3)OCO4)cs2)c1` [Compound 574]: the IC50 on BRM and at BRG-1 was over 10 nM in each case.
`CS(=O)(=O)n1ccc(C(=O)NCC(=O)Nc2nc(-c3cccc([C@@H]4CC4(F)F)c3)cs2)c1` [Compound 575]: the IC50 on BRM and at BRG-1 was over 10 nM each time.
As for `CS(=O)(=O)n1ccc(C(=O)NCC(=O)Nc2nc(-c3cccc([C@H]4CC4(F)F)c3)cs2)c1` [Compound 576], the IC50 at BRM is under 10 nM; on BRG-1, over 10 nM.
For `COC(=O)N1CCC[C@@H](c2csc(NC(=O)CNC(=O)c3ccn(S(C)(=O)=O)c3)n2)C1` [Compound 578], the results for the IC50 on BRM and on BRG-1 were over 10 nM and over 100 nM, respectively.
The like results for `COC(=O)N1CCC[C@H](c2csc(NC(=O)CNC(=O)c3ccn(S(C)(=O)=O)c3)n2)C1` [Compound 579] were, in that order, over 100 nM and over 100 nM.
With `COC(=O)N1CCC[C@@H](c2csc(NC(=O)CNC(=O)c3ccn(C(C)(C)C)c3)n2)C1` [Compound 580], the IC50 on BRM and on BRG-1 was over 100 nM each time.
For `COC(=O)N1CCC[C@H](c2csc(NC(=O)CNC(=O)c3ccn(C(C)(C)C)c3)n2)C1` [Compound 581], the IC50 at BRM and on BRG-1 was over 100 nM in each case.
As to `COC[C@H](NC(=O)c1ccn(C(C)(C)C)c1)C(=O)Nc1nc(-c2ccc3ccn(C(F)F)c(=O)c3c2)cs1` [Compound 583], the IC50 on BRM and at BRG-1 was over 10 nM throughout.
Take `COC[C@H](NC(=O)c1ccn(C(C)(C)C#N)c1)C(=O)Nc1nc(-c2ccc3ccn(C)c(=O)c3c2)cs1` [Compound 584]: the IC50 on BRM and at BRG-1 was under 10 nM in each case.
Take `CS(=O)(=O)n1ccc(C(=O)NCC(=O)Nc2nc(-c3cccc(N4CC[C@H](C(F)F)C4)c3)cs2)c1` [Compound 585]: the IC50 on BRM is under 10 nM; at BRG-1 it was over 10 nM.
As for `CS(=O)(=O)n1ccc(C(=O)NCC(=O)Nc2nc(-c3cccc(N4CC[C@@H](C(F)F)C4)c3)cs2)c1` [Compound 586], the IC50 on BRM and on BRG-1 was over 10 nM throughout.
`C[C@H](NC(=O)c1ccn(C2(C#N)CC2)c1)C(=O)Nc1nc(-c2cccc(-c3ccn(C)n3)c2)cs1` [Compound 588]: the IC50 at BRM is over 10 nM; at BRG-1 it was over 100 nM.
As to `C[C@H](NC(=O)c1ccn(C2(C)COC2)c1)C(=O)Nc1nc(-c2cccc(-c3ccn(C)n3)c2)cs1` [Compound 589], the IC50 at BRM was over 10 nM; on BRG-1, over 100 nM.
On to `CN1CCOc2ccc(-c3csc(NC(=O)CNC(=O)c4ccn(C(C)(C)C#N)c4)n3)cc21` [Compound 590], for which the IC50 at BRM and on BRG-1 was over 10 nM each time.
In the case of `C[C@H](NC(=O)c1ccn(S(C)(=O)=O)c1)C(=O)Nc1nc(-c2cccc(-c3ccn(C)n3)c2)cs1` [Compound 591], the IC50 on BRM and at BRG-1 was over 10 nM throughout.
For the molecule `COC[C@H](NC(=O)c1ccn(S(C)(=O)=O)c1)C(=O)Nc1nc(-c2ccc(F)c(OC(F)(F)F)c2)cs1` [Compound 592], the IC50 on BRM and at BRG-1 was over 10 nM each time.
`COC[C@H](NC(=O)c1ccn(S(C)(=O)=O)c1)C(=O)Nc1nc(-c2cc(F)cc(OC(F)(F)F)c2)cs1` [Compound 593]: the IC50 at BRM and at BRG-1 was over 10 nM throughout.
